From patent US10130590B2, “Methods of treating cancer with atovaquone-related compounds” (DANA-FARBER CANCER INSTITUTE, INC., priority 2013, dated 2018)

Tests used:
Format in all cases: cell-based
HEL cells = assay: Cell viability (Cell Titer Glo), HEL; details: 72 hours
Protocol: Western blotting was performed as previously described (Battle T E, Arbiser J, & Frank D A (2005) The natural product honokiol induces caspase dependent apoptosis in B-cell chronic lymphocytic leukemia (B-CLL) cells. Blood 106(2):690-697). Antibodies to phospho-MAPK (9101), total MAPK (9102), phospho-Y705 STAT3 (9131), phospho-S6 (2215), total S6 (2217), phospho-4E-BP1 (9451), total 4E-BP1 (9644), total RSK (9355), phospho-S6K (9234, 85 used at 1:5000), total S6K (2708), phospho-eIF2α (9721, used at 1:1000), total eIF2α (5324), ATF4 (11815, used at 1:1000), PDGFRβ (3169), IGF1Rβ (9750), EGFR (2232), and HER2 (2242) were from Cell Signaling Technology. Phospho-RSK antibody was from R&D (AF889). Antibodies to total STAT3 (sc-482) and gp130 (sc-656, used at 1:1000) were from Santa Cruz Biotechnology. Phospho-S727 STAT3 antibody was described previously (229). REDD1 antibody was from Proteintech (10638-1-AP, used at 1:1000). Antibody recognizing full-length and cleaved ATF6 was from Abcam (ab122897, used at 1:1000). Antibodies to tubulin (T5168) and beta actin (A5316) were from Sigma. All antibodies were used at 1:10000 dilution for western blot unless otherwise noted. […] Cell viability was measured as ATP-dependent luminescence by Cell Titer Glo (Promega). […]

gp130 = assay: Western blot of total gp130
Protocol: Western blotting was performed as previously described (Battle T E, Arbiser J, & Frank D A (2005) The natural product honokiol induces caspase dependent apoptosis in B-cell chronic lymphocytic leukemia (B-CLL) cells. Blood 106(2):690-697). Antibodies to phospho-MAPK (9101), total MAPK (9102), phospho-Y705 STAT3 (9131), phospho-S6 (2215), total S6 (2217), phospho-4E-BP1 (9451), total 4E-BP1 (9644), total RSK (9355), phospho-S6K (9234, 85 used at 1:5000), total S6K (2708), phospho-eIF2α (9721, used at 1:1000), total eIF2α (5324), ATF4 (11815, used at 1:1000), PDGFRβ (3169), IGF1Rβ (9750), EGFR (2232), and HER2 (2242) were from Cell Signaling Technology. Phospho-RSK antibody was from R&D (AF889). Antibodies to total STAT3 (sc-482) and gp130 (sc-656, used at 1:1000) were from Santa Cruz Biotechnology. […] Cell viability was measured as ATP-dependent luminescence by Cell Titer Glo (Promega).
Since atovaquone reduced gp130 expression at the cell surface, it was asked whether this effect was accompanied by reduced total gp130 in the cell. To address this question, a time course of atovaquone treatment was performed and total cellular gp130 was measured by Western blotting in U266 cells treated with atovaquone at 20 μM. […]
MEF, MDA-MB-468, and SKBR3 cells were treated with atovaquone (25 μM) for 6 or 12 hours, then analyzed by Western blot for expression of gp130 and various other receptors. […]

STAT1 = STAT1 phosphorylation in cancer cells
Text: It has been discovered, using an unbiased gene expression-based approach, that atovaquone is a novel STAT3 inhibitor. Atovaquone acts by diminishing cell-surface gp130 expression and STAT3 tyrosine phosphorylation. As a consequence, critical STAT3 target genes mediating survival and proliferation are reduced, such as survivin, Bcl-2 family members, and cyclin D1. Moreover, atovaquone inhibits the viability of STAT3-dependent cancer cells by inducing apoptosis and disrupting cell cycle progression. […] Since STAT5 activation is crucial to cancer pathogenesis caused by JAK2-V617F, the additional inhibition of STAT5 in this context is a desirable effect of atovaquone. […] Because the effects of atovaquone on STAT activation are restricted to gp130-dependent signaling, atovaquone inhibits STATs more selectively than direct pharmacological JAK inhibition. […] At the same time, the actions of atovaquone extend to all cytokines that signal through gp130, including LIF and OSM, thereby exerting broader effects than therapies specifically directed against IL-6 or IL-6 receptor, such as monoclonal antibodies. This is also advantageous, since oncogenic effects of LIF and OSM have been reported.

SMILES: O=C1C(O)=C([C@H]2CC[C@H](c3ccc(Cl)cc3)CC2)C(=O)c2ccccc21 [atovaquone, trans-2-[4-(4-chlorophenyl)cyclohexyl]-3-hydroxy-1,4-naphthalenedione]
- viability of HEL cells (HEL cells): killed
- total gp130 in other cell lines (gp130; MEF, SKBR3, MDA-MB-468, 25 μM, 6 or 12 hours): induced loss of total gp130 after prolonged treatment
- total cellular gp130, time course (gp130; U266, 20 μM): not reduced except at much longer time points
- mutant JAK2-dependent phosphorylation of STAT1 (STAT1; HEL cells): inhibited
- IL-6-dependent phosphorylation of STAT1 (STAT1; INA-6 and U266 cells): inhibited IL-6-dependent phosphorylation of STAT1
